The source of these data is article PMC5218480 (PLoS ONE, 2017).

This experiment relates to MV-4-11 cells. Briefly: Gene expression microarray analysis (Affymetrix PrimeView) and GSEA. Format: cell-based, human. Particulars: ProbeSet 11725885_a_at; LIST B. Further details: RFU PODN (11730768_x_at) / Fold change /veh PODN (11730768_x_at) / RFU LINC00158 (11744669_a_at) / Fold change /veh LINC00158 (11744669_a_at) / RFU DUSP10 (11751237_a_at) / Fold change /veh DUSP10 (11751237_a_at) / RFU ID3 (11757404_x_at) / Fold change /veh ID3 (11757404_x_at) / RFU PLEKHG5 (11737974_s_at) / Fold change /veh PLEKHG5 (11737974_s_at) / RFU LRRC4B (11730491_at) / Fold change /veh LRRC4B (11730491_at) / RFU GIMAP4 (11747438_a_at) / Fold change /veh GIMAP4 (11747438_a_at) / RFU KRT8 (11758183_x_at) / Fold change /veh KRT8 (11758183_x_at) / RFU CNN1 (11734310_a_at) / Fold change /veh CNN1 (11734310_a_at) / RFU VPS37D (11726825_at) / Fold change /veh VPS37D (11726825_at) / RFU C10orf10 (11716522_x_at) / Fold change /veh C10orf10 (11716522_x_at) / RFU KIR2DL2 /// KIR2DL4 /// KIR2DL5A /// KIR2DL5B /// KIR2DS1 /// KIR2DS2 /// KIR2DS3 /// KIR2DS4 /// KIR3DL3 /// KIR3DL3 /// KIR3DS1 (11738374_at) / Fold change /veh KIR2DL2 /// KIR2DL4 /// KIR2DL5A /// KIR2DL5B /// KIR2DS1 /// KIR2DS2 /// KIR2DS3 /// KIR2DS4 /// KIR3DL3 /// KIR3DL3 /// KIR3DS1 (11738374_at) / RFU C1QL1 (11718748_at) / Fold change /veh C1QL1 (11718748_at) / RFU TMPRSS4 (11747572_a_at) / Fold change /veh TMPRSS4 (11747572_a_at) / RFU HAMP (11756126_x_at) / Fold change /veh HAMP (11756126_x_at) / RFU RNFT2 (11725882_a_at) / Fold change /veh RNFT2 (11725882_a_at) / RFU NR4A2 (11747474_a_at) / Fold change /veh NR4A2 (11747474_a_at) / RFU ABCC12 (11746883_a_at) / Fold change /veh ABCC12 (11746883_a_at) / RFU TMEM136 (11760407_x_at) / Fold change /veh TMEM136 (11760407_x_at) / RFU CLDN22 /// WWC2 (11732394_at) / Fold change /veh CLDN22 /// WWC2 (11732394_at) / RFU HLA-DPB1 (11760878_x_at) / Fold change /veh HLA-DPB1 (11760878_x_at) / RFU SPINT1 (11716480_a_at) / Fold change /veh SPINT1 (11716480_a_at) / RFU GAP43 (11754022_s_at) / Fold change /veh GAP43 (11754022_s_at) / RFU A4GNT (11735810_at) / Fold change /veh A4GNT (11735810_at) / RFU PRB3 (11715151_x_at) / Fold change /veh PRB3 (11715151_x_at) / RFU TUBB4B (11761932_at) / Fold change /veh TUBB4B (11761932_at) / RFU CAPN14 (11732068_a_at) / Fold change /veh CAPN14 (11732068_a_at) / RFU TMCC2 (11721928_a_at) / Fold change /veh TMCC2 (11721928_a_at) / RFU IRGQ (11745062_a_at) / Fold change /veh IRGQ (11745062_a_at) / RFU FAM174B (11720279_a_at) / Fold change /veh FAM174B (11720279_a_at) / RFU TMPRSS4 (11748680_a_at) / Fold change /veh TMPRSS4 (11748680_a_at) / RFU FAM212B (11763350_a_at) / Fold change /veh FAM212B (11763350_a_at) / RFU PLEKHG5 (11743358_a_at) / Fold change /veh PLEKHG5 (11743358_a_at) / RFU ZSCAN30 (11745921_a_at) / Fold change /veh ZSCAN30 (11745921_a_at) / RFU CMKLR1 (11741424_a_at) / Fold change /veh CMKLR1 (11741424_a_at) / RFU LOC101060620 /// MAPK8IP1 (11723275_at) / Fold change /veh LOC101060620 /// MAPK8IP1 (11723275_at) / RFU SPTSSB (11747773_x_at) / Fold change /veh SPTSSB (11747773_x_at) / RFU PRSS12 (11739890_at) / Fold change /veh PRSS12 (11739890_at) / RFU BIN1 (11741810_x_at) / Fold change /veh BIN1 (11741810_x_at) / RFU WNT11 (11732464_a_at) / Fold change /veh WNT11 (11732464_a_at) / RFU C10orf10 (11716521_a_at) / Fold change /veh C10orf10 (11716521_a_at) / RFU C5orf56 (11738089_at) / Fold change /veh C5orf56 (11738089_at) / RFU CYB561 (11721691_x_at) / Fold change /veh CYB561 (11721691_x_at) / RFU ANKRD19P (11752326_a_at) / Fold change /veh ANKRD19P (11752326_a_at) / RFU OR2T12 /// OR2T33 /// OR2T8 (11738714_s_at) / Fold change /veh OR2T12 /// OR2T33 /// OR2T8 (11738714_s_at) / RFU VCAN (11748164_a_at) / Fold change /veh VCAN (11748164_a_at) / RFU JSRP1 (11732532_at) / Fold change /veh JSRP1 (11732532_at) / RFU KRTAP10-11 (11738290_x_at) / Fold change /veh KRTAP10-11 (11738290_x_at) / RFU MYO3A (11730013_a_at) / Fold change /veh MYO3A (11730013_a_at) / RFU EBF3 (11725865_a_at) / Fold change /veh EBF3 (11725865_a_at) / RFU CAMK2N1 (11719241_x_at) / Fold change /veh CAMK2N1 (11719241_x_at) / RFU C5orf56 (11738088_a_at) / Fold change /veh C5orf56 (11738088_a_at) / RFU OLFML3 (11715873_a_at) / Fold change /veh OLFML3 (11715873_a_at) / RFU LOC100653217 /// NTM (11731650_a_at) / Fold change /veh LOC100653217 /// NTM (11731650_a_at) / RFU MAPK11 (11762145_a_at) / Fold change /veh MAPK11 (11762145_a_at) / RFU FIZ1 (11724087_x_at) / Fold change /veh FIZ1 (11724087_x_at) / RFU OASL (11726364_x_at) / Fold change /veh OASL (11726364_x_at) / RFU SOX15 (11748057_x_at) / Fold change /veh SOX15 (11748057_x_at) / RFU CD79A (11719716_a_at) / Fold change /veh CD79A (11719716_a_at) / RFU HIST1H1D (11736915_at) / Fold change /veh HIST1H1D (11736915_at) / RFU CASKIN2 (11723855_a_at) / Fold change /veh CASKIN2 (11723855_a_at) / RFU LOC730098 (11760151_x_at) / Fold change /veh LOC730098 (11760151_x_at) / RFU OR4N2 (11742367_at) / Fold change /veh OR4N2 (11742367_at) / RFU PRRT2 (11749266_a_at) / Fold change /veh PRRT2 (11749266_a_at) / RFU SNX32 (11753110_a_at) / Fold change /veh SNX32 (11753110_a_at) / RFU CDHR5 (11726645_a_at) / Fold change /veh CDHR5 (11726645_a_at) / RFU RCAN1 (11760418_a_at) / Fold change /veh RCAN1 (11760418_a_at) / RFU FAM167A (11723789_a_at) / Fold change /veh FAM167A (11723789_a_at) / RFU FAM26E (11764081_at) / Fold change /veh FAM26E (11764081_at) / RFU ISYNA1 (11749810_s_at) / Fold change /veh ISYNA1 (11749810_s_at) / RFU ACY1 (11761880_at) / Fold change /veh ACY1 (11761880_at) / RFU 11764098_at / Fold change /veh 11764098_at / RFU SAMD14 (11745864_x_at) / Fold change /veh SAMD14 (11745864_x_at) / RFU NPB (11741838_a_at) / Fold change /veh NPB (11741838_a_at) / RFU TMPRSS6 (11731388_a_at) / Fold change /veh TMPRSS6 (11731388_a_at) / RFU KRTAP10-2 (11738614_at) / Fold change /veh KRTAP10-2 (11738614_at) / RFU ARHGAP8 /// PRR5-ARHGAP8 (11727945_x_at) / Fold change /veh ARHGAP8 /// PRR5-ARHGAP8 (11727945_x_at) / RFU KRTAP5-7 /// NADSYN1 (11734609_at) / Fold change /veh KRTAP5-7 /// NADSYN1 (11734609_at) / RFU RASL12 (11751679_a_at) / Fold change /veh RASL12 (11751679_a_at) / RFU CDKN2B (11736163_a_at) / Fold change /veh CDKN2B (11736163_a_at) / RFU PRF1 (11729649_at) / Fold change /veh PRF1 (11729649_at) / RFU, ZNF638 /// ZNF638-IT1 / Fold change vs veh, ZNF638 /// ZNF638-IT1 / RFU, PANK3 / Fold change vs veh, PANK3 / RFU, SH3YL1 / Fold change vs veh, SH3YL1 / RFU, ZEB2 / Fold change vs veh, ZEB2 / RFU, NRIP1 / Fold change vs veh, NRIP1 / RFU, PTTG1IP / Fold change vs veh, PTTG1IP / RFU, CAPN2 / Fold change vs veh, CAPN2 / RFU, MED14 / Fold change vs veh, MED14 / RFU, SNORA58 / Fold change vs veh, SNORA58 / RFU, C1orf63 / Fold change vs veh, C1orf63 / RFU, LRRFIP1 / Fold change vs veh, LRRFIP1 / RFU, NDUFAF7 / Fold change vs veh, NDUFAF7 / RFU, SLC12A2 / Fold change vs veh, SLC12A2 / RFU, IBTK / Fold change vs veh, IBTK / RFU, ESF1 / Fold change vs veh, ESF1 / Fold change vs veh, TMEM50B / RFU, TAOK1 / Fold change vs veh, TAOK1 / RFU, ACBD3 / Fold change vs veh, ACBD3 / RFU, TMA16 / Fold change vs veh, TMA16 / RFU, RWDD3 / Fold change vs veh, RWDD3 / RFU, BCAT1 / Fold change vs veh, BCAT1 / RFU, EDEM3 / Fold change vs veh, EDEM3 / RFU, TMEM33 / Fold change vs veh, TMEM33 / RFU, WDR75 / Fold change vs veh, WDR75 / RFU, AHCTF1 / Fold change vs veh, AHCTF1 / RFU, TFRC / Fold change vs veh, TFRC / RFU, ZDHHC17 / Fold change vs veh, ZDHHC17 / RFU, NOM1 / Fold change vs veh, NOM1 / RFU, ARL8B / Fold change vs veh, ARL8B / RFU, ZBTB11 / Fold change vs veh, ZBTB11 / RFU, TAMM41 / Fold change vs veh, TAMM41 / RFU, KIAA1704 /// LOC100996395 / Fold change vs veh, KIAA1704 /// LOC100996395 / RFU, ING1 / Fold change vs veh, ING1 / RFU, TRMT61B / Fold change vs veh, TRMT61B / RFU, FUBP3 / Fold change vs veh, FUBP3 / RFU, TP53 / Fold change vs veh, TP53 / RFU, TNKS2 / Fold change vs veh, TNKS2 / RFU, ZFP14 / Fold change vs veh, ZFP14 / RFU, ACTR2 / Fold change vs veh, ACTR2 / RFU, PPP3R1 / Fold change vs veh, PPP3R1 / RFU, PIK3R1 / Fold change vs veh, PIK3R1 / RFU, HNRNPA1 / Fold change vs veh, HNRNPA1 / RFU, RNF170 / Fold change vs veh, RNF170 / RFU, ZNF28 / Fold change vs veh, ZNF28 / RFU, RNGTT / Fold change vs veh, RNGTT / RFU, OGT / Fold change vs veh, OGT / RFU, BRD1 / Fold change vs veh, BRD1 / RFU, MARS / Fold change vs veh, MARS / RFU, ZNF655 / Fold change vs veh, ZNF655 / RFU, FAHD1 / Fold change vs veh, FAHD1 / RFU, BDP1 / Fold change vs veh, BDP1 / RFU, LRRCC1 / Fold change vs veh, LRRCC1 / RFU, ARID1A / Fold change vs veh, ARID1A / RFU, ZNF146 / Fold change vs veh, ZNF146 / RFU, ZNF330 / Fold change vs veh, ZNF330 / RFU, GPN3 / Fold change vs veh, GPN3 / RFU, C9orf123 / Fold change vs veh, C9orf123 / RFU, N4BP2L2 / Fold change vs veh, N4BP2L2 / RFU, ARFIP1 / Fold change vs veh, ARFIP1 / RFU, FAM179B / Fold change vs veh, FAM179B / RFU, BCL10 / Fold change vs veh, BCL10 / RFU, UHRF1BP1L / Fold change vs veh, UHRF1BP1L / RFU, BET1 / Fold change vs veh, BET1 / RFU, CNOT2 / Fold change vs veh, CNOT2 / RFU, ZNF268 / Fold change vs veh, ZNF268 / Fold change vs veh, ZNF507 / RFU, DGCR2 / Fold change vs veh, DGCR2 / RFU, WDSUB1 / Fold change vs veh, WDSUB1 / Fold change vs veh, HSP90B1 /// MIR3652 / RFU, ADSS / Fold change vs veh, ADSS / RFU, GK / Fold change vs veh, GK / RFU, ZNF148 / Fold change vs veh, ZNF148 / RFU, TAF9 / Fold change vs veh, TAF9 / RFU, SLC1A5 / Fold change vs veh, SLC1A5 / RFU, SLMO2 / Fold change vs veh, SLMO2 / RFU, ABCC4 / Fold change vs veh, ABCC4 / RFU, LOC101060439 /// RAP1B / Fold change vs veh, LOC101060439 /// RAP1B / RFU, RFX7 / Fold change vs veh, RFX7 / RFU, GTPBP10 / Fold change vs veh, GTPBP10 / RFU, CNEP1R1 / Fold change vs veh, CNEP1R1 / RFU, BIVM-ERCC5 /// ERCC5 / Fold change vs veh, BIVM-ERCC5 /// ERCC5 / RFU, ILF3 / Fold change vs veh, ILF3 / RFU 11762660_at / Fold change /veh 11762660_at / RFU VCAN (11757783_s_at) / Fold change /veh VCAN (11757783_s_at) / RFU DDX43 (11728927_at) / Fold change /veh DDX43 (11728927_at) / RFU KRT8 (11758188_x_at) / Fold change /veh KRT8 (11758188_x_at) / RFU NKD1 (11759106_at) / Fold change /veh NKD1 (11759106_at) / RFU SRD5A1 (11742802_a_at) / Fold change /veh SRD5A1 (11742802_a_at) / RFU TPSAB1 /// TPSB2 (11721975_s_at) / Fold change /veh TPSAB1 /// TPSB2 (11721975_s_at) / RFU GSTM3 (11746129_a_at) / Fold change /veh GSTM3 (11746129_a_at) / RFU IL23R (11737362_x_at) / Fold change /veh IL23R (11737362_x_at) / RFU TMEM51 (11727254_a_at) / Fold change /veh TMEM51 (11727254_a_at) / RFU PIWIL2 (11732686_x_at) / Fold change /veh PIWIL2 (11732686_x_at) / RFU ORM1 (11744905_x_at) / Fold change /veh ORM1 (11744905_x_at) / RFU CCDC152 (11743942_at) / Fold change /veh CCDC152 (11743942_at) / RFU ECM1 (11717891_a_at) / Fold change /veh ECM1 (11717891_a_at) / RFU IL23R (11748794_a_at) / Fold change /veh IL23R (11748794_a_at) / RFU TNFAIP8L3 (11732012_x_at) / Fold change /veh TNFAIP8L3 (11732012_x_at) / RFU MBOAT4 (11741988_at) / Fold change /veh MBOAT4 (11741988_at) / RFU 11764193_at / Fold change /veh 11764193_at / RFU TMEM53 (11763286_at) / Fold change /veh TMEM53 (11763286_at) / RFU MAGEB2 (11727129_at) / Fold change /veh MAGEB2 (11727129_at) / RFU TMEM200A (11744735_a_at) / Fold change /veh TMEM200A (11744735_a_at) / RFU CCDC152 (11751479_a_at) / Fold change /veh CCDC152 (11751479_a_at) / RFU FAM211A (11726209_a_at) / Fold change /veh FAM211A (11726209_a_at) / RFU RGS16 (11746705_a_at) / Fold change /veh RGS16 (11746705_a_at) / RFU VCAN (11755009_s_at) / Fold change /veh VCAN (11755009_s_at) / RFU RHOB (11743442_s_at) / Fold change /veh RHOB (11743442_s_at) / RFU RGS16 (11720943_a_at) / Fold change /veh RGS16 (11720943_a_at) / RFU RGS16 (11720944_at) / Fold change /veh RGS16 (11720944_at) / RFU, VPS4B / Fold change vs veh, VPS4B / RFU, CREB1 / Fold change vs veh, CREB1 / RFU, DNAJC13 / Fold change vs veh, DNAJC13 / RFU, GNAQ / Fold change vs veh, GNAQ / RFU, CDK5R1 / Fold change vs veh, CDK5R1 / RFU, ZRANB3 / Fold change vs veh, ZRANB3 / RFU, CUL4A / Fold change vs veh, CUL4A / RFU, CCNY / Fold change vs veh, CCNY / RFU, UFL1 / Fold change vs veh, UFL1 / RFU, COG3 / Fold change vs veh, COG3 / RFU, DIAPH2 / Fold change vs veh, DIAPH2 / RFU, SKA2 / Fold change vs veh, SKA2 / RFU, AFF3 / Fold change vs veh, AFF3 / RFU, LMF1 / Fold change vs veh, LMF1 / RFU, IPO11 / Fold change vs veh, IPO11 / RFU, DFFB / Fold change vs veh, DFFB / RFU, FOXP1 / Fold change vs veh, FOXP1 / RFU, CARD8 / Fold change vs veh, CARD8 / RFU, STRN3 / Fold change vs veh, STRN3 / RFU, ADK / Fold change vs veh, ADK / RFU, RASSF2 / Fold change vs veh, RASSF2 / RFU, WIPF1 / Fold change vs veh, WIPF1 / RFU, LARP1B / Fold change vs veh, LARP1B / RFU, RASA1 / Fold change vs veh, RASA1 / RFU, RB1 / Fold change vs veh, RB1 / RFU, PPFIA1 / Fold change vs veh, PPFIA1 / RFU, MAT2A / Fold change vs veh, MAT2A / RFU, CCT5 / Fold change vs veh, CCT5 / RFU, WDR92 / Fold change vs veh, WDR92 / RFU, CUX1 / Fold change vs veh, CUX1 / RFU, TTC7A / Fold change vs veh, TTC7A / RFU, TMEM135 / Fold change vs veh, TMEM135 / RFU, DEPTOR / Fold change vs veh, DEPTOR / RFU, CPM / Fold change vs veh, CPM / RFU, DNAJB6 / Fold change vs veh, DNAJB6 / RFU, CACNA2D3 / Fold change vs veh, CACNA2D3 / RFU, DTX4 / Fold change vs veh, DTX4 / RFU, TFCP2 / Fold change vs veh, TFCP2 / RFU, GMCL1 /// GMCL1P1 / Fold change vs veh, GMCL1 /// GMCL1P1 / RFU, AEBP2 / Fold change vs veh, AEBP2 / RFU, SNHG1 /// SNORD22 /// SNORD25 /// SNORD26 /// SNORD27 /// SNORD28 /// SNORD29 /// SNORD31 / Fold change vs veh, SNHG1 /// SNORD22 /// SNORD25 /// SNORD26 /// SNORD27 /// SNORD28 /// SNORD29 /// SNORD31 / Fold change (Aza/veh), C12orf56 (ProbeSet 11735607_a_at) / Fold change (ACY-1035/veh), C12orf56 (ProbeSet 11735607_a_at) / Fold change (Aza/veh), FGFR1OP (ProbeSet 11751329_s_at) / Fold change (ACY-1035/veh), FGFR1OP (ProbeSet 11751329_s_at) / Fold change (Aza/veh), VPS36 (ProbeSet 11739960_a_at) / Fold change (ACY-1035/veh), VPS36 (ProbeSet 11739960_a_at) / RFU SYPL1 (11715823_x_at) / Fold change /veh SYPL1 (11715823_x_at) / RFU IGFBP7 (11715501_s_at) / Fold change /veh IGFBP7 (11715501_s_at) / RFU REEP3 (11722064_at) / Fold change /veh REEP3 (11722064_at) / RFU IGLL1 (11728026_x_at) / Fold change /veh IGLL1 (11728026_x_at): dose or concentration left out as unconfirmed.

On to `Nc1ncn([C@@H]2O[C@H](CO)[C@@H](O)[C@H]2O)c(=O)n1` [azacitidine], for which the “Fold change vs veh, CNEP1R1” value is 0.86.
